# In article PMC8209157, “Identification of a dual orange/far-red and blue light photoreceptor from an oceanic green picoplankton” (Nature Communications, 2021):
# What was measured:
# [1] = biological target: T1, PpPHY (PHY region of PpDUC1) (Pycnococcus provasolii, UniProt A0A830HT85); assay: UV-Vis photoconversion spectra of purified holoprotein; assay type: binding; conditions: chromophore co-produced in E. coli (pKT272); HEPES pH 7.5, room temperature
# T1 construct: gene PPROV_000692100; source genome assembly GCA_015473125.1
# T1 sequence (A0A830HT85 1-662): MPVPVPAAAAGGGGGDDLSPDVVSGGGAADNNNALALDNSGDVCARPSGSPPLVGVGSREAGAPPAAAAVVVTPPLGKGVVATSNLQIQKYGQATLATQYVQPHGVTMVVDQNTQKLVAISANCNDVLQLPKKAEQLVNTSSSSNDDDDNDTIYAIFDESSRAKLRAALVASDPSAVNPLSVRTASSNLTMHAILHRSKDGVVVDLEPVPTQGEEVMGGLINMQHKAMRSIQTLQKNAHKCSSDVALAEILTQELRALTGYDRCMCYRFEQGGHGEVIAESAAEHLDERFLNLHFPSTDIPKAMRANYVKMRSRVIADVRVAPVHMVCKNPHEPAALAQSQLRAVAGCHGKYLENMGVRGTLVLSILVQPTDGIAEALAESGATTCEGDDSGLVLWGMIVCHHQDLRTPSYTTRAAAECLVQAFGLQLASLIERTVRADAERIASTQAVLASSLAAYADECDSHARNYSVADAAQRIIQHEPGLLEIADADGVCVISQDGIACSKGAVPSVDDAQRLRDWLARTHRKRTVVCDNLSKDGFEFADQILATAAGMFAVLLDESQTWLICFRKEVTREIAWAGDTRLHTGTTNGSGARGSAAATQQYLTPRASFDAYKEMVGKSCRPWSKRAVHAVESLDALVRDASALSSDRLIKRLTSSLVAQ
# [2] = biological target: T1, PpPHY (PHY region of PpDUC1); assay: UV-Vis photoconversion spectra, acid-urea denaturation and in-gel fluorescence of purified holoprotein; assay type: binding; conditions: covalent; GAF Cys; chromophore co-produced in E. coli (pKT271); HEPES pH 7.5, room temperature
Compound,UV-Vis photoconversion spectra of purified holoprotein [1],"UV-Vis photoconversion spectra, acid-urea denaturation and in-gel fluorescence o [2]"
"C=CC1=C(C)C(=CC2=NC(=Cc3[nH]c(C=C4NC(=O)C(C)C4=CC)c(C)c3CCC(=O)O)C(CCC(=O)O)=C2C)NC1=O (centres unmarked) [PΦB, phytochromobilin]",PΦB but not BV could be efficiently incorporated into the apo-PpPHY,–
"CC=C1C(=Cc2[nH]c(C=C3N=C(C=C4NC(=O)C(CC)=C4C)C(C)=C3CCC(=O)O)c(CCC(=O)O)c2C)NC(=O)C1C (centres unmarked) [PCB, phycocyanobilin]",–,The purified PpPHY covalently bound PCB
